Molecular target: Stimulator of interferon genes protein (Homo sapiens, UniProt Q86WV6)
Assay: WT STING Binding Assay
Protocol: Upon proximity of the two dyes, the excitation of the donor by the flash lamp on the PHERAstar FSX plate reader triggers a Fluorescence Resonance Energy Transfer (FRET) towards the acceptor, which in turn fluoresces at 665 nm. To assess the ability of the synthetic small molecule STING ligands to bind to human STING, a competitive assay format was applied. A 10-point titration of each of the synthetic ligands in 5 uL were transferred into a 384 well plate, followed by 20 uL of assay buffer containing the 6×His-tagged human STING protein and labeled 2′3′cGAMP ligand and incubated for three hours at room temperature. The raw values obtained from the PHERAstar were used to calculate the reported IC50 values (the signal is inversely proportional to the binding of the synthetic ligand) through curve fitting in Genedata. The percent inhibition was calculated based upon the maximal amount of binding by synthetic compound versus the maximum binding of unlabeled 2′3′ cGAMP which was used as a control in each assay.

Chain of Stimulator of interferon genes protein (Q86WV6 whole entry): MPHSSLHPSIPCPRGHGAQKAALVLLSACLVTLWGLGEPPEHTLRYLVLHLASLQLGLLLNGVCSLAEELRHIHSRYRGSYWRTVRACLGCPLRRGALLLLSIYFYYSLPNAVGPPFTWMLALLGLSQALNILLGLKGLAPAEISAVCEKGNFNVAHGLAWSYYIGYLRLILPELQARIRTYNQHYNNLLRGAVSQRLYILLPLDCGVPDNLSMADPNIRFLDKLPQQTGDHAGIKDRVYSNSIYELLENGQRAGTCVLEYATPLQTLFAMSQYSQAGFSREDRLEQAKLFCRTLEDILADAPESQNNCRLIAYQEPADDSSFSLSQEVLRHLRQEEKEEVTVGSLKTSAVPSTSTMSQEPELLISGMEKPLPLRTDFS

Compound	IC50 [nM]
O=C(Nc1cc(CCCc2cc(C(=O)O)c(NC(=O)c3ccc(-n4ccnc4)nn3)cc2F)ccc1C(=O)O)c1ccc(-n2ccnc2)nn1 [US20230357253, Compound 78]	< 10
O=C(Nc1cc(OCCCOc2cc(C(=O)O)c(NC(=O)c3ccc(-n4ccnc4)nn3)cc2F)c(F)cc1C(=O)O)c1ccc(-n2ccnc2)nn1 [US20230357253, Compound 10]	< 10
COc1cc(C(=O)O)c(NC(=O)c2ccc(-n3ccnc3)nn2)cc1OCCc1cc(C(=O)O)c(NC(=O)c2ccc(-n3ccnc3)nn2)cc1Cl [US20230357253, Compound 156]	< 10
COc1cc(C(=O)O)c(NC(=O)c2ccc(-n3ccnc3)nn2)cc1CCCc1ccc(C(=O)O)c(NC(=O)c2ccc(-n3ccnc3)nn2)c1 [US20230357253, Compound 56]	< 10
C=C(Cc1cc(NC(=O)c2ccc(-n3ccnc3)nn2)c(C(=O)O)cc1F)Cc1cc(NC(=O)c2ccc(-n3ccnc3)nn2)c(C(=O)O)cc1F [US20230357253, Compound 199]	< 10
N#Cc1cc(C(=O)O)c(NC(=O)c2ccc(-n3ccnc3)nn2)cc1CCOc1cc(NC(=O)c2ccc(-n3ccnc3)nn2)c(C(=O)O)cc1F [US20230357253, Compound 162]	< 10
O=C(Nc1cc(CCOc2cc(C(=O)O)c(NC(=O)c3ccc4nnnn4n3)cc2F)c(F)cc1C(=O)O)c1ccc(-n2ccnc2)nn1 [US20230357253, Compound 145]	10 to 100
O=C(Nc1cc(OCCc2c(F)cc(NC(=O)c3ccc(-n4ccnc4)nn3)c(C(=O)O)c2F)c(F)cc1C(=O)O)c1ccc(-n2ccnc2)nn1 [US20230357253, Compound 177]	< 10
O=C(Nc1cc(CCc2ccc(C(=O)O)c(NC(=O)c3ccc4nnnn4n3)c2)ccc1C(=O)O)c1ccc2nnnn2n1 [US20230357253, Compound 29]	> 1000
CC(CCOc1cc(NC(=O)c2ccc(-n3ccnc3)nn2)c(C(=O)O)cc1F)Oc1cc(NC(=O)c2ccc(-n3ccnc3)nn2)c(C(=O)O)cc1F (stereo unspecified) [US20230357253, Compound 5]	< 10
O=C(Nc1cc(OCCc2cc(C(=O)O)c(NC(=O)c3ccc(-c4cn[nH]c4)nn3)cc2F)c(F)cc1C(=O)O)c1ccc(-c2cn[nH]c2)nn1 [US20230357253, Compound 204]	< 10
O=C(Nc1cc(OCCCOc2ccc(C(=O)O)c(NC(=O)c3ccc4nnnn4n3)c2)ccc1C(=O)O)c1ccc2nnnn2n1 [US20230357253, Compound 28]	> 1000
COc1cc(C(=O)O)c(NC(=O)c2ccc(-n3ccnc3)nn2)cc1OCCCCOc1cc(NC(=O)c2ccc(-n3ccnc3)nn2)c(C(=O)O)cc1OC [US20230357253, Compound 21]	> 1000
O=C(Nc1cc(CCCOc2cc(NC(=O)c3ccc4nnnn4n3)c(C(=O)O)cc2F)c(F)cc1C(=O)O)c1ccc(-n2ccnc2)nn1 [US20230357253, Compound 126]	< 10
COc1cc(C(=O)O)c(NC(=O)c2ccc(-n3ccnc3)nn2)cc1OCCc1cc(C(=O)O)c(NC(=O)c2ccc(-n3ccnc3)nn2)cc1C#N [US20230357253, Compound 130]	< 10
N#Cc1cc(C(=O)O)c(NC(=O)c2ccc(-n3ccnc3)nn2)cc1CCCc1cc(NC(=O)c2ccc(-n3ccnc3)nn2)c(C(=O)O)cc1F [US20230357253, Compound 182]	< 10
O=C(Nc1cc(OCCc2cc(C(=O)O)c(NC(=O)c3ccc(-n4ccnc4)nn3)cc2Cl)c(F)cc1C(=O)O)c1ccc(-n2ccnc2)nn1 [US20230357253, Compound 166]	< 10
O=C(Nc1cc(OCc2cc(C(=O)O)c(NC(=O)c3ccc(-n4ccnc4)nn3)cc2F)c(F)cc1C(=O)O)c1ccc(-n2ccnc2)nn1 [US20230357253, Compound 190]	> 1000
O=C(Nc1cc(OCCOc2cc(C(=O)O)c(NC(=O)c3ccc(-n4ccnc4)nn3)cc2F)c(F)cc1C(=O)O)c1ccc(-n2ccnc2)nn1 [US20230357253, Compound 191]	< 10
O=C(Nc1cc(CCCc2ccc(C(=O)O)c(NC(=O)c3ccc4nnnn4n3)c2)ccc1C(=O)O)c1ccc(-n2ccnc2)nn1 [US20230357253, Compound 63]	> 1000
O=C(Nc1cc(OCCCCCOc2ccc(C(=O)O)c(NC(=O)c3ccc4nnnn4n3)c2)ccc1C(=O)O)c1ccc2nnnn2n1 [US20230357253, Compound 30]	> 1000

Reference: BindingDB's records for patent US20230357253 (The Scripps Research Institute, 2023)
